The values below come from the RepoRT retention time repository (doi:10.1016/j.foodchem.2021.129757).

A short description of the first series: RP, 150 × 2.1 mm, 2.6 µm, 40 °C, 0.35 mL/min, estimated dead time 0.94 min; A: water + 0.1% formic acid, pH 3; B: acetonitrile + 0.1% formic acid, pH 3; gradient (min/%B) 0/0 1/5 7/45 8.5/80 10.5/80 11/5 12/5. As to conditions: stereoisomer not certain.
For the compound `CC1OC(OCC2OC(Oc3c(-c4ccc(O)cc4)oc4cc(O)cc(O)c4c3=O)C(O)C(O)C2O)C(O)C(O)C1O` (configuration not stated) [Kaempferol 3-O-rutinoside], the LC retention time is 5.92 min. On to `O=c1ccc2cc(OC3OC(CO)C(O)C(O)C3O)c(O)cc2o1` (configuration not stated) [Esculin], for which the LC retention time was 3.94 min. As to `COC(=O)Cc1c[nH]c2ccccc12` [Methyl indole acetate], the LC retention time was 8.34 min. On to `O=c1ccc2ccc(O)cc2o1` [Umbelliferone], for which the LC retention time is 7.69 min.

For the compound `Cc1cc(=O)oc2cc(O)ccc12` [4-methylumbelliferone], the LC retention time was 6.46 min.

A further series is described as follows: RP, Phenomenex Kinetex EVO C18, 100 × 2.1 mm, 2.6 µm, 40 °C, 0.4 mL/min, estimated dead time 0.55 min; A: water + 0.2% formic acid; B: acetonitrile + 0.2% formic acid; gradient (min/%B) 0/5 0.5/5 7/95 8/95 8.5/5 12/5. As to conditions: stereoisomer not certain.
On to `COc1cc(C=CC(=O)NCC(=O)O)ccc1O` [Feruloylglycine], for which the LC retention time was 4.33 min. The same measure, in the same setting: with `O=S(=O)(O)Oc1cc(O)cc(C=Cc2ccc(O)cc2)c1` [Resveratrol 3-O-sulfate] the figure was 5.89 min.

With `O=C(O)c1ccc(O)c(OS(=O)(=O)O)c1` [protocatechuic acid-3-O-sulfate], the LC retention time was 2.38 min.

As for `O=c1oc2cc(O)ccc2c2cc(O)c(O)cc12` [Urolithin C], the LC retention time was 5.11 min. Turning to `O=C(O)c1ccc(OC2OC(C(=O)O)C(O)C(O)C2O)c(O)c1` (configuration not stated) [Protocatechuic acid-4-glucuronide], the LC retention time was 1.03 min.

Regarding `O=C1CCC(Cc2ccc(O)c(OS(=O)(=O)O)c2)O1` (configuration not stated) [5-(4'-Hydroxyphenyl)-gamma-valerolactone-3'-sulfate], the LC retention time is 4.64 min. Still for that read-out and setting: for `O=C1CCC(Cc2cccc(OS(=O)(=O)O)c2)O1` (configuration not stated) [5-Phenyl-gamma-valerolactone-3'-sulfate] the value was 4.96 min; for `O=C1CCC(Cc2cc(O)cc(O)c2)O1` (configuration not stated) [5-(3',5'-Dihydroxyphenyl)-gamma-valerolactone], 3.72 min.

Regarding `O=C1CCC(Cc2cc(O)cc(OC3OC(C(=O)O)C(O)C(O)C3O)c2)O1` (configuration not stated) [5-(5'-Hydroxyphenyl)-gamma-valerolactone-3'-glucuronide], the LC retention time was 2.34 min. For the compound `O=C1CCC(Cc2ccc(O)c(O)c2)O1` (configuration not stated) [5-(3',4'-Dihydroxyphenyl)-gamma-valerolactone], the LC retention time is 4.13 min. In the case of `O=C1CC(c2ccc(O)cc2)Oc2cc(OC3OC(C(=O)O)C(O)C(O)C3O)cc(O)c21` (configuration not stated) [Naringenin-7-O-glucuronide], the LC retention time is 5.12 min. In the case of `O=C1CC(c2ccc(OC3OC(C(=O)O)C(O)C(O)C3O)cc2)Oc2cc(O)cc(O)c21` (configuration not stated) [Naringenin-4'-O-glucuronide], the LC retention time was 5.18 min. On to `O=C(O)c1ccc(OC2OC(C(=O)O)C(O)C(O)C2O)cc1` (configuration not stated) [Hydroxybenzoic acid-4-glucuronide], for which the LC retention time is 1.06 min. Still for that read-out and setting: with `COc1ccc(C(=O)O)cc1OC1OC(C(=O)O)C(O)C(O)C1O` (configuration not stated) [Isovanillic acid-3-glucuronide] the figure was 2.34 min.

On to `O=C1CCC(Cc2cccc(OC3OC(C(=O)O)C(O)C(O)C3O)c2)O1` (configuration not stated) [5-Phenyl-gamma-valerolactone-3'-glucuronide], for which the LC retention time was 4.31 min.

As for `O=C(O)c1ccc(OS(=O)(=O)O)cc1` [Hydroxybenzoic acid-4-sulfate], the LC retention time is 2.55 min.

The nature of a further series: RP, Waters ACQUITY UPLC HSS T3, 100 × 2.1 mm, 50 °C; A: water + 0.1% formic acid, pH 3; B: 30% methanol + 70% acetonitrile + 0.1% formic acid, pH 3; gradient (min/%B) 0/5 1/8 2/15 3/40 4/70 4.5/100 5/100 6.4/100 6.6/5 6.8/5 7/5. To be noted: stereoisomer not certain.
On to `COc1cc(-c2oc3cc(O)cc(O)c3c(=O)c2O)ccc1OC1OC(C(=O)O)C(O)C(O)C1O` (configuration not stated) [Isorhamnetin 4'-O-glucuronide], for which the LC retention time came to 3.58 min. The same measure, in the same setting: with `O=C(O)CCc1c[nH]c2ccccc12` [3-Indolepropionic acid] the figure was 3.76 min.

The nature of the next series: RP, Waters ACQUITY UPLC HSS T3, 100 × 2.1 mm, 1.8 µm, 30 °C, 0.4 mL/min, estimated dead time 0.55 min; A: water + 0.1% formic acid, pH 3; B: acetonitrile + 0.1% formic acid, pH 3; gradient (min/%B) 0/0 2/0 15/100 22/100 22.1/0 26/0. To be noted: stereoisomer not certain.
Regarding `O=c1ccc2ccc(O)cc2o1` [Umbelliferone], the LC retention time is 9.65 min.

Another series in a line: RP, Agilent ZORBAX Eclipse XDB-C18, 100 × 2.1 mm, 1.8 µm, 50 °C, 0.4 mL/min, estimated dead time 0.55 min; A: water + 0.1% formic acid, pH 3; B: methanol + 0.1% formic acid, pH 3; gradient (min/%B) 0/2 10/100 14.5/100 14.51/2 16.5/2. To be noted: stereoisomer not certain.
In the case of `O=C(O)CCc1c[nH]c2ccccc12` [3-Indolepropionic acid], the LC retention time is 5.54 min. Still for that read-out and setting: with `CCC=CCC1C(=O)CCC1CC(=O)OC` (configuration not stated) [Methyl jasmonate] the figure was 7.77 min.

Consider `COc1cccc(O)c1O` [3-Methoxycatechol], for which the LC retention time is 3.2 min.

Another series can be described thus: RP, Waters ACQUITY UPLC BEH C18, 100 × 2.1 mm, 1.7 µm, 65 °C, 0.4 mL/min, estimated dead time 0.55 min; A: water + 0.1% formic acid, pH 3; B: 80% acetonitrile + 20% acetone + 0.1% formic acid, pH 3; gradient (min/%B) 0/0 5/100 5.5/0 6/0. To be noted: stereoisomer not certain.
For the compound `O=C(O)CNC(=O)c1ccco1` [2-Furoylglycine], the LC retention time is 1.51 min.

Turning to `O=C(O)CCc1c[nH]c2ccccc12` [3-Indolepropionic acid], the LC retention time was 2.64 min.

A short description of the next series: RP, Waters ACQUITY UPLC BEH Shield RP18, 150 × 2.1 mm, 1.7 µm, 40 °C, 0.4 mL/min, estimated dead time 0.83 min; A: water + 0.1% formic acid, pH 3; B: acetonitrile + 0.1% formic acid, pH 3; gradient (min/%B) 0/0 30/50 31/100 37/100 37.1/0. As to conditions: stereoisomer not certain.
On to `O=c1c(OC2OC(CO)C(O)C(O)C2O)c(-c2ccc(O)cc2)oc2cc(O)cc(O)c12` (configuration not stated) [Kaempferol-3-O-glucoside], for which the LC retention time is 14.7 min.

The next series in a line: RP, Agilent ZORBAX RRHD Eclipse Plus C18, 50 × 2.1 mm, 1.8 µm, 30 °C, 0.4 mL/min, estimated dead time 0.28 min; A: water + 0.1% formic acid, pH 3; B: acetonitrile + 0.1% formic acid, pH 3; gradient (min/%B) 0/1 5/10 8/25 9.1/99 10/99 12/1. To be noted: stereoisomer not certain.
As for `O=C(O)CNC(=O)c1ccccc1O` [2-Hydroxyhippuric acid], the LC retention time was 6.83 min. On the same count and under the same terms, for `O=C(NC(O)C(=O)O)c1ccccc1` (stereo not drawn) [Alpha-hydroxyhippuric acid] the value was 2.97 min.

Another series in a line: RP, Agilent ZORBAX RRHD Eclipse Plus C18, 50 × 2.1 mm, 1.8 µm, 30 °C, 0.4 mL/min, estimated dead time 0.28 min; A: water + 0.1% formic acid, pH 3; B: acetonitrile + 0.1% formic acid, pH 3; gradient (min/%B) 0/1 5/10 8/25 9.1/99 10/99 12/99. To be noted: stereoisomer not certain.
Consider `O=C(O)CNC(=O)c1ccccc1O` [2-Hydroxyhippuric acid], for which the LC retention time was 6.69 min. As to `O=C(NC(O)C(=O)O)c1ccccc1` (stereo not drawn) [Alpha-hydroxyhippuric acid], the LC retention time was 1.37 min.

The next series can be described thus: RP, Agilent InfinityLab Poroshell 120 EC-C18, 100 × 3 mm, 2.7 µm, 25 °C, 0.4 mL/min, estimated dead time 1.1 min; A: water + 0.1% formic acid, pH 3; B: acetonitrile + 0.1% formic acid, pH 3; gradient (min/%B) 0/5 10/25 20/40 24/90 25/90 26/5 30/5. As to conditions: stereoisomer not certain.
Regarding `O=S(=O)(O)Oc1cc(O)cc(C=Cc2ccc(O)cc2)c1` [Resveratrol 3-O-sulfate], the LC retention time is 8.93 min. Consider `O=c1oc2cc(O)ccc2c2cc(O)c(O)cc12` [Urolithin C], for which the LC retention time was 10.3 min.

The next series is described as follows: RP, Phenomenex Synergi Hydro-RP, 250 × 2 mm, 4 µm, 25 °C, 0.2 mL/min, estimated dead time 2.5 min; A: water + 0.1% formic acid, pH 3; B: acetonitrile + 0.1% formic acid, pH 3; gradient (min/%B) 0/0.5 7/0.5 12/12.5 25/16.3 47/35 48/65 50/65 50.1/0.5. As to conditions: stereoisomer not certain.
As to `CC1OC(OCC2OC(Oc3c(-c4ccc(O)cc4)oc4cc(O)cc(O)c4c3=O)C(O)C(O)C2O)C(O)C(O)C1O` (configuration not stated) [Kaempferol 3-O-rutinoside], the LC retention time was 37 min.
